Tests used:
[1] = test system: HCV genotype 1a (H77 strain) replicon in HUH-7 cells; test: HCV replicon luciferase reporter assay, genotype 1a; type: cell-based; details: Hepatitis C virus, Huh-7, 72 h, HCV genotype 1a replicon luciferase assay, 3 days incubation, range class, read-out: LE_1a (EC50, range)
Outline: (§1)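 Replicon inhibition for both genotypes was measured as Renilla luciferase signal (EnduRen, 7.5 μM final, 2 h) after 3-day, 37° C exposure of replicon-bearing HUH-7 cells in 4% FCS DMEM, 0.5% DMSO. The 1b construct carries S1179I; the 1a H77 construct carries P1496L and S2204I. Twenty-point, 3-fold dilutions were fitted four-parametrically for EC50, and CC50 was taken from multiplexed Cell Titer-Blue.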

[2] = test system: HCV genotype 1b (Con1) replicon in HUH-7 cells; test: HCV replicon luciferase reporter assay, genotype 1b; type: cell-based; details: Hepatitis C virus, Huh-7, 72 h, HCV genotype 1b replicon luciferase assay, 3 days incubation, range class, read-out: LE_1b (EC50, range)
Outline: as §1

Row | Structure (SMILES) | EC50 [1] [nM] | EC50 [2] [nM]
1 | COc1cnc(O[C@@H]2C[C@H]3C(=O)N[C@]4(C(=O)NS(=O)(=O)C5(CF)CC5)C[C@H]4/C=C\CC[C@H](C)C[C@@H](C)[C@H](NC(=O)OC(C)(C)C)C(=O)N3C2)c2ccc(N(C)C)cc12 [Compound 3141, tert-butyl ((2R,6S,7R,9S,13aS,14aR,16aS,Z)-2-((6-(dimethylamino)-4-methoxyisoquinolin-1-yl)oxy)-14a-(((1-(fluoromethyl)cyclopropyl)sulfonyl)carbamoyl)-7,9-dimethyl-5,16-dioxo-1,2,3,5,6,7,8,9,10,11,13a,14,14a,15,16,16a-hexadecahydrocyclopropa[e]pyrrolo[1,2-a][1,4]diazacyclopentadecin-6-yl)carbamate] | < 5.46 | < 5.46
2 | COc1cnc(O[C@@H]2C[C@H]3C(=O)N[C@]4(C(=O)NS(=O)(=O)C5(CF)CC5)C[C@H]4/C=C\CC[C@@H](C)C[C@@H](C)[C@H](NC(=O)OC(C)(C)C)C(=O)N3C2)c2ccc(N(C)C)cc12 [Compound 3142, tert-butyl ((2R,6S,7R,9R,13aS,14aR,16aS,Z)-2-((6-(dimethylamino)-4-methoxyisoquinolin-1-yl)oxy)-14a-(((1-(fluoromethyl)cyclopropyl)sulfonyl)carbamoyl)-7,9-dimethyl-5,16-dioxo-1,2,3,5,6,7,8,9,10,11,13a,14,14a,15,16,16a-hexadecahydrocyclopropa[e]pyrrolo[1,2-a][1,4]diazacyclopentadecin-6-yl)carbamate] | < 5.46 | < 5.46
3 | COc1cnc(O[C@@H]2C[C@H]3C(=O)N[C@]4(C(=O)NS(=O)(=O)C5(CF)CC5)C[C@H]4/C=C\CC[C@H](C)C[C@@H](C)[C@H](NC(=O)OC(C)(C)C(F)(F)F)C(=O)N3C2)c2ccc(N(C)C)cc12 [Compound 3143, 1,1,1-trifluoro-2-methylpropan-2-yl((2R,6S,7R,9S,13aS,14aR,16aS,Z)-2-((6-(dimethylamino)-4-methoxyisoquinolin-1-yl)oxy)-14a-(((1-(fluoromethyl)cyclopropyl)sulfonyl)carbamoyl)-7,9-dimethyl-5,16-dioxo-1,2,3,5,6,7,8,9,10,11,13a,14,14a,15,16,16a-hexadecahydrocyclopropa[e]pyrrolo[1,2-a][1,4]diazacyclopentadecin-6-yl)carbamate] | < 5.46 | < 5.46
4 | COc1cnc(O[C@@H]2C[C@H]3C(=O)N[C@]4(C(=O)NS(=O)(=O)C5(CF)CC5)C[C@H]4/C=C\CC[C@@H](C)C[C@@H](C)[C@H](NC(=O)OC(C)(C)C(F)(F)F)C(=O)N3C2)c2ccc(N(C)C)cc12 [Compound 3144, 1,1,1-trifluoro-2-methylpropan-2-yl((2R,6S,7R,9R,13aS,14aR,16aS,Z)-2-((6-(dimethylamino)-4-methoxyisoquinolin-1-yl)oxy)-14a-(((1-(fluoromethyl)cyclopropyl)sulfonyl)carbamoyl)-7,9-dimethyl-5,16-dioxo-1,2,3,5,6,7,8,9,10,11,13a,14,14a,15,16,16a-hexadecahydrocyclopropa[e]pyrrolo[1,2-a][1,4]diazacyclopentadecin-6-yl)carbamate] | < 5.46 | < 5.46
5 | COc1cnc(O[C@@H]2C[C@H]3C(=O)N[C@]4(C(=O)NS(=O)(=O)C5(CF)CC5)C[C@H]4/C=C\CC[C@H](C)C[C@@H](C)[C@H](NC(=O)OC(C)(C)C)C(=O)N3C2)c2ccc(F)cc12 [Compound 3145, tert-butyl ((2R,6S,7R,9S,13aS,14aR,16aS,Z)-2-((6-fluoro-4-methoxyisoquinolin-1-yl)oxy)-14a-(((1-(fluoromethyl)cyclopropyl)sulfonyl)carbamoyl)-7,9-dimethyl-5,16-dioxo-1,2,3,5,6,7,8,9,10,11,13a,14,14a,15,16,16a-hexadecahydrocyclopropa[e]pyrrolo[1,2-a][1,4]diazacyclopentadecin-6-yl)carbamate] | 4.82 to 103 | 4.82 to 103
6 | COc1cnc(O[C@@H]2C[C@H]3C(=O)N[C@]4(C(=O)NS(=O)(=O)C5(CF)CC5)C[C@H]4/C=C\CC[C@@H](C)C[C@@H](C)[C@H](NC(=O)OC(C)(C)C)C(=O)N3C2)c2ccc(F)cc12 [Compound 3146, tert-butyl ((2R,6S,7R,9R,13aS,14aR,16aS,Z)-2-((6-fluoro-4-methoxyisoquinolin-1-yl)oxy)-14a-(((1-(fluoromethyl)cyclopropyl)sulfonyl)carbamoyl)-7,9-dimethyl-5,16-dioxo-1,2,3,5,6,7,8,9,10,11,13a,14,14a,15,16,16a-hexadecahydrocyclopropa[e]pyrrolo[1,2-a][1,4]diazacyclopentadecin-6-yl)carbamate] | < 5.46 | < 5.46
7 | COc1ccc2c(O[C@@H]3C[C@H]4C(=O)N[C@]5(C(=O)NS(=O)(=O)C6CC6)C[C@H]5/C=C\CC[C@H](C)C[C@@H](C)[C@H](NC(=O)OC(C)(C)C)C(=O)N4C3)nccc2c1F [Compound 3147, tert-butyl ((2R,6S,7R,9S,13aS,14aR,16aS,Z)-14a-((cyclopropylsulfonyl)carbamoyl)-2-((5-fluoro-6-methoxyisoquinolin-1-yl)oxy)-7,9-dimethyl-5,16-dioxo-1,2,3,5,6,7,8,9,10,11,13a,14,14a,15,16,16a-hexadecahydrocyclopropa[e]pyrrolo[1,2-a][1,4]diazacyclopentadecin-6-yl)carbamate] | 4.82 to 103 | < 5.46
8 | COc1ccc2c(O[C@@H]3C[C@H]4C(=O)N[C@]5(C(=O)NS(=O)(=O)C6CC6)C[C@H]5/C=C\CC[C@@H](C)C[C@@H](C)[C@H](NC(=O)OC(C)(C)C)C(=O)N4C3)nccc2c1F [Compound 3148, tert-butyl ((2R,6S,7R,9R,13aS,14aR,16aS,Z)-14a-((cyclopropylsulfonyl)carbamoyl)-2-((5-fluoro-6-methoxyisoquinolin-1-yl)oxy)-7,9-dimethyl-5,16-dioxo-1,2,3,5,6,7,8,9,10,11,13a,14,14a,15,16,16a-hexadecahydrocyclopropa[e]pyrrolo[1,2-a][1,4]diazacyclopentadecin-6-yl)carbamate] | < 5.46 | < 5.46
9 | COc1ccc2c(O[C@@H]3C[C@H]4C(=O)N[C@]5(C(=O)NS(=O)(=O)C6CC6)C[C@H]5/C=C\CC[C@H](C)C[C@@H](C)[C@H](NC(=O)OC(C)(C)C(F)(F)F)C(=O)N4C3)nccc2c1F [Compound 3149, 1,1,1-trifluoro-2-methylpropan-2-yl((2R,6S,7R,9S,13aS,14aR,16aS,Z)-14a-((cyclopropylsulfonyl)carbamoyl)-2-((5-fluoro-6-methoxyisoquinolin-1-yl)oxy)-7,9-dimethyl-5,16-dioxo-1,2,3,5,6,7,8,9,10,11,13a,14,14a,15,16,16a-hexadecahydrocyclopropa[e]pyrrolo[1,2-a][1,4]diazacyclopentadecin-6-yl)carbamate] | 4.82 to 103 | < 5.46
10 | COc1ccc2c(O[C@@H]3C[C@H]4C(=O)N[C@]5(C(=O)NS(=O)(=O)C6CC6)C[C@H]5/C=C\CC[C@@H](C)C[C@@H](C)[C@H](NC(=O)OC(C)(C)C(F)(F)F)C(=O)N4C3)nccc2c1F [Compound 3150, 1,1,1-trifluoro-2-methylpropan-2-yl((2R,6S,7R,9R,13aS,14aR,16aS,Z)-14a-((cyclopropylsulfonyl)carbamoyl)-2-((5-fluoro-6-methoxyisoquinolin-1-yl)oxy)-7,9-dimethyl-5,16-dioxo-1,2,3,5,6,7,8,9,10,11,13a,14,14a,15,16,16a-hexadecahydrocyclopropa[e]pyrrolo[1,2-a][1,4]diazacyclopentadecin-6-yl)carbamate] | < 5.46 | < 5.46
11 | COc1ccc2c(O[C@@H]3C[C@H]4C(=O)N[C@]5(C(=O)NS(=O)(=O)C6CC6)C[C@H]5/C=C\CC[C@H](C)C[C@@H](C)[C@H](NC(=O)O[C@@H]5C[C@@H]6C[C@@H]6C5)C(=O)N4C3)nccc2c1F [Compound 3151, (1R,3r,5S)-bicyclo[3.1.0]hexan-3-yl((2R,6S,7R,9S,13aS,14aR,16aS,Z)-14a-((cyclopropylsulfonyl)carbamoyl)-2-((5-fluoro-6-methoxyisoquinolin-1-yl)oxy)-7,9-dimethyl-5,16-dioxo-1,2,3,5,6,7,8,9,10,11,13a,14,14a,15,16,16a-hexadecahydrocyclopropa[e]pyrrolo[1,2-a][1,4]diazacyclopentadecin-6-yl)carbamate] | 4.82 to 103 | < 5.46
12 | COc1ccc2c(O[C@@H]3C[C@H]4C(=O)N[C@]5(C(=O)NS(=O)(=O)C6CC6)C[C@H]5/C=C\CC[C@@H](C)C[C@@H](C)[C@H](NC(=O)O[C@@H]5C[C@@H]6C[C@@H]6C5)C(=O)N4C3)nccc2c1F [Compound 3152, (1R,3r,5S)-bicyclo[3.1.0]hexan-3-yl((2R,6S,7R,9R,13aS,14aR,16aS,Z)-14a-((cyclopropylsulfonyl)carbamoyl)-2-((5-fluoro-6-methoxyisoquinolin-1-yl)oxy)-7,9-dimethyl-5,16-dioxo-1,2,3,5,6,7,8,9,10,11,13a,14,14a,15,16,16a-hexadecahydrocyclopropa[e]pyrrolo[1,2-a][1,4]diazacyclopentadecin-6-yl)carbamate] | < 5.46 | < 5.46
13 | COc1cc(F)cc2c(O[C@@H]3C[C@H]4C(=O)N[C@]5(C(=O)NS(=O)(=O)C6(C)CC6)C[C@H]5/C=C\CC[C@H](C)C[C@@H](C)[C@H](NC(=O)OC(C)(C)C)C(=O)N4C3)nccc12 [Compound 3153, tert-butyl ((2R,6S,7R,9S,13aS,14aR,16aS,Z)-2-((7-fluoro-5-methoxyisoquinolin-1-yl)oxy)-7,9-dimethyl-14a-(((1-methylcyclopropyl)sulfonyl)carbamoyl)-5,16-dioxo-1,2,3,5,6,7,8,9,10,11,13a,14,14a,15,16,16a-hexadecahydrocyclopropa[e]pyrrolo[1,2-a][1,4]diazacyclopentadecin-6-yl)carbamate] | 4.82 to 103 | 4.82 to 103

— US9499550B2 (BRISTOL-MYERS SQUIBB COMPANY, priority 2012, dated 2016)
